# In US9302988B2, “Fluoromethyl-substituted pyrrole carboxamides” (GRÜNENTHAL GMBH, priority 2012, dated 2016):
# Biological target: T1, Human CaV2.2 channels (Homo sapiens, UniProt Q00975)
# T1 construct: expressed in transfected cells
# Experiment: Fluorescent assay for CaV2.2 channels using potassium depolarization to induce channel opening (FLIPR, Fluo-4)
# Type: cell-based
# Settings: 3 μM test compound, 30 mM KCl, HEK293 cells stably expressing human CaV2.2; read-out: %-Inhib (CaV2.2) @3 μM @30 mM KCl
# Description: In the process, the Ca^2+ influx is quantified in the FLIPR assay with the aid of a Ca^2+-sensitive dye (type Fluo-4, Molecular Probes Europe BV, Leiden, the Netherlands) in a fluorescent imaging plate reader (FLIPR 3, Molecular Devices, Sunnyvale, USA), as described hereinafter.
# 2.1 Fluorescent Assay for CaV2.2 Channels Using Potassium Depolarization to Induce Channel Opening
# Human CaV2.2 channels were stably expressed in HEK293 cells together with alpha2-delta and beta subunits of voltage gated calcium channels. In addition, an inwardly rectifying potassium channel (Kir2.3) was stably expressed in these cells to augment control of the cell membrane potential by the concentration of extracellular potassium ions. Raise of the extracellular potassium concentration leads to depolarization of the membrane potential and thus regulates the voltage dependent state of CaV2.2 channels. For preparation, cells were seeded in black poly-D-lysine coated 96-well plates (Becton Dickinson, Biocoat 4640) in 100 μl medium [500 ml DMEM/F-12 plus Glutamax (Invitrogen 31331-093) plus 5.5 ml MEM NEAA 100× (Invitrogen 11140-035) plus 50 ml FBS decomplemented (Invitrogen 10270-106) plus 4.4 ml Geneticin (Invitrogen 10131-027) plus 1.1 ml Hygromycin B (Invitrogen 10687-010) plus 68.75 μl Puromycin (Clontech, 631306)] at a cell density of 45.000 cells per well.
# Plates were incubated at 37° C. (5% CO2) for 20 to 23 hours. On the day of experiment medium was discarded and cells were loaded with Fluo 4 by addition of 100 μl of basic assay buffer (10 mM HEPES, 30 mM KCl, 120 mM NaCl, 0.8 mM CaCl2, 1.7 mM MgCl2, 10 mM Glucose, 0.1% BSA. pH 7.4) containing 2 μM Fluo 4 (Molecular Probes; F-14201), 0.01% pluronic acid (Molecular Probes; P-6866) and 2.5 mM probenecid (Molecular Probes; P36400). Cells were incubated in the dark at 25° C. for 60 min. Then the dye containing buffer was discarded and 100 μl basic assay buffer was added. Subsequently cells were incubated in the dark at 25° C. for 15 min. 25 μl of basic assay buffer with or without test compound were added and cells were incubated again in the dark at 25° C. for 15 min. Fluorescence intensity was measured on a FLIPR 3 instrument (Molecular Devices Corp., Sunnyvale, Calif.) with excitation at 480 nm and emission at 535 nm. After continuously reading fluorescence for 30 sec, 50 μl of basic assay buffer containing 210 mM KCl (NaCl omitted) were added for depolarization. Peak fluorescent signal intensity was determined and the amplitude of the peak signal, normalized to base line, was used to measure channel inhibition by test compounds.
# T1 sequence (Q00975 whole entry): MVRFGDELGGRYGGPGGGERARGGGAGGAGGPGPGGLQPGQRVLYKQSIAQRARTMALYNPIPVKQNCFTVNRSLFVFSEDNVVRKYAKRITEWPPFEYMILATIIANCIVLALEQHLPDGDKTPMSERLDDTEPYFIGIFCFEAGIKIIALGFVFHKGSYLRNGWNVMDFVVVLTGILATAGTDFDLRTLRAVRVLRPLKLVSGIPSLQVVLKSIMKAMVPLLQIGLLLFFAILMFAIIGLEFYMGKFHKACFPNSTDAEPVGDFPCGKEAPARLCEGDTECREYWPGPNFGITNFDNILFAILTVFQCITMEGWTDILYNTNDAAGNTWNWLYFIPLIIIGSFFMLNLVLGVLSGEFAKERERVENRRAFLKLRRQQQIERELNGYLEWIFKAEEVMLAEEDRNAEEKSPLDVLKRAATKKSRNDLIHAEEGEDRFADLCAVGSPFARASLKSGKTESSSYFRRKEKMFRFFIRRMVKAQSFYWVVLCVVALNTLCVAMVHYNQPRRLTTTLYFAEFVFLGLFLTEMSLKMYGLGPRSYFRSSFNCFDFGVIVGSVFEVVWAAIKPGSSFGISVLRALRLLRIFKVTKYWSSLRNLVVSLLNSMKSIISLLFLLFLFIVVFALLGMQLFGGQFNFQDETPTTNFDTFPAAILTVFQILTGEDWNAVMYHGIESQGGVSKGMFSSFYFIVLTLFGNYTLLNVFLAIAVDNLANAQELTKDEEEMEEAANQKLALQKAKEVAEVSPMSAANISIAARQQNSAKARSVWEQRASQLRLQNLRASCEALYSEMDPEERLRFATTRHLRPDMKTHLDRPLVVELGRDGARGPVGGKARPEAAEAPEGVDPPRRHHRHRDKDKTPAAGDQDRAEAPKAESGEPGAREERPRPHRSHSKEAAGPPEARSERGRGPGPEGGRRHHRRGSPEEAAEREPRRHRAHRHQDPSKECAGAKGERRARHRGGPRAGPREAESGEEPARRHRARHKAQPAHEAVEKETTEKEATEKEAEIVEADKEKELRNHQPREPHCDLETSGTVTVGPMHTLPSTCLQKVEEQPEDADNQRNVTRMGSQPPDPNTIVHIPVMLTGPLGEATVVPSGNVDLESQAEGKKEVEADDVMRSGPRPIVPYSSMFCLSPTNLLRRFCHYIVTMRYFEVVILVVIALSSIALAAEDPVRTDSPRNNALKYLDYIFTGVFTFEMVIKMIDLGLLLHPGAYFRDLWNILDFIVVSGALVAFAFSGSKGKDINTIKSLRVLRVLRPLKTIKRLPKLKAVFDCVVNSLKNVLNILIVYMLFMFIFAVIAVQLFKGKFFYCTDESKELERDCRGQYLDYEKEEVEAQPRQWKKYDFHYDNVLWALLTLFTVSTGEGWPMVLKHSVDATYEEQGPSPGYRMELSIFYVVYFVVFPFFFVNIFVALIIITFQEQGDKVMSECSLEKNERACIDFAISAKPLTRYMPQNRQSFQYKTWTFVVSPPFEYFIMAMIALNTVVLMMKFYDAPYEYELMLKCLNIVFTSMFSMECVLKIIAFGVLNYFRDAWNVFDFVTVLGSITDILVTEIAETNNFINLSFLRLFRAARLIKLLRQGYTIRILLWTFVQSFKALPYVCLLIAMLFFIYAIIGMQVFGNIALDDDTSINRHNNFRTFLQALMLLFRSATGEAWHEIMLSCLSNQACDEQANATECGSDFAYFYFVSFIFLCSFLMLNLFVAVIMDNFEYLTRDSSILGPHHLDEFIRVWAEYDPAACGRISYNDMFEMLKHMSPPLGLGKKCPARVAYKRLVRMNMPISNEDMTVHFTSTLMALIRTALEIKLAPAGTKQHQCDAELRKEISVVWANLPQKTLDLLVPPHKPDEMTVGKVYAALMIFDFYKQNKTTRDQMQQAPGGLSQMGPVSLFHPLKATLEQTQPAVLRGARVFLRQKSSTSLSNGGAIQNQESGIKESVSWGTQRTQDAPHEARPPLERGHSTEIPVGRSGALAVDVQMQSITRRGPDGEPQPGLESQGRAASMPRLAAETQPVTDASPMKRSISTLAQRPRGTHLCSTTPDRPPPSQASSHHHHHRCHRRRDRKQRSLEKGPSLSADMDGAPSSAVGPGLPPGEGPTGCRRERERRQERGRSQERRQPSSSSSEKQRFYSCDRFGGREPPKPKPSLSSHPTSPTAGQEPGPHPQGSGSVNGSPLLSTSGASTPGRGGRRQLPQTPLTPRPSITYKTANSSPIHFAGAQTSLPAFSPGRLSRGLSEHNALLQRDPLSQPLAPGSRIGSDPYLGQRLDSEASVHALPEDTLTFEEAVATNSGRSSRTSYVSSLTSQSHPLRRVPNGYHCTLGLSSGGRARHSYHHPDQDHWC
# T1 sequence (P54289 25-1103, further chain): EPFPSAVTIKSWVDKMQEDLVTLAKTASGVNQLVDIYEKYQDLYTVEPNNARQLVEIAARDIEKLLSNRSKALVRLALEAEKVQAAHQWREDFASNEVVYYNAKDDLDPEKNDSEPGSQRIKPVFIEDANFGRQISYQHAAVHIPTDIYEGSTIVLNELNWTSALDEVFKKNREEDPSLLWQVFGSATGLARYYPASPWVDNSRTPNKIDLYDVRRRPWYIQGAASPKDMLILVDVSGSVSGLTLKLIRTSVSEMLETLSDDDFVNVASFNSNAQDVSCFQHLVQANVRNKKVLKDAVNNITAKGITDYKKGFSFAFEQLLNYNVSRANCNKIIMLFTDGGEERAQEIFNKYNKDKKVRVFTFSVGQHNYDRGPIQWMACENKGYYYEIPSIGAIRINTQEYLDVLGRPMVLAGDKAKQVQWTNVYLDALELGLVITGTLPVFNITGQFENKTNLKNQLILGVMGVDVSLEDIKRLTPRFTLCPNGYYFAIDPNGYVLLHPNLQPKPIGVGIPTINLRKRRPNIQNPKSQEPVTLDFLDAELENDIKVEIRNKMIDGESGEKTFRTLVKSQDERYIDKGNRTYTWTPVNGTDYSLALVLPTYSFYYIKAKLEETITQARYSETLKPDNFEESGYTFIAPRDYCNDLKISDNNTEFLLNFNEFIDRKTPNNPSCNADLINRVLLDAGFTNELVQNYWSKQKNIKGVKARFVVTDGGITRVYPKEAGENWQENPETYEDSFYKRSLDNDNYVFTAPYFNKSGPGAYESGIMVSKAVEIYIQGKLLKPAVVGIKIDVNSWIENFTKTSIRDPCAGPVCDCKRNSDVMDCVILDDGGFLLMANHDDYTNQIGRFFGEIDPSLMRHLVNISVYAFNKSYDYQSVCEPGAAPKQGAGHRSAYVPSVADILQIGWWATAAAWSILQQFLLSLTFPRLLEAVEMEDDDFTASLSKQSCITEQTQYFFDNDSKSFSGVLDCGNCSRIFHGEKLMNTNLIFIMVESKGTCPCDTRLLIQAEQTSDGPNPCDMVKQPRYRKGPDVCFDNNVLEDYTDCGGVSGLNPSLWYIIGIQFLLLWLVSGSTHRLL
# T1 sequence (P54284 whole entry, further chain): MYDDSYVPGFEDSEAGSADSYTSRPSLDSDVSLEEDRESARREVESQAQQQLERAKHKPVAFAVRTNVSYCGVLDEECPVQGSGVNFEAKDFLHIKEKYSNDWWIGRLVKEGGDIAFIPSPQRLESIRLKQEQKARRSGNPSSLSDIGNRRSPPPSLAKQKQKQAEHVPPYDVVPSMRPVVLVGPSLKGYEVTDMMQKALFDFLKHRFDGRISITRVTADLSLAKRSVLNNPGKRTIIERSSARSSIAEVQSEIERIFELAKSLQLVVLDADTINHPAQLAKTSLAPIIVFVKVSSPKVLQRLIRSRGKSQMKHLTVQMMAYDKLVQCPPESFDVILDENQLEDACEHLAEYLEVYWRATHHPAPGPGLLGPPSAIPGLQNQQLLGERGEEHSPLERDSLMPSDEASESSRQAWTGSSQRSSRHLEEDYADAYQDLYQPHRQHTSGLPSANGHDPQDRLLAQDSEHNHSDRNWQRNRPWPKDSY
row,Compound,inhibition at 3 µM
1,"O=C(c1c(-c2ccc(Cl)cc2)cc(C(F)(F)F)n1Cc1ccccc1)N1CCOCC1 [SC-01, [1-Benzyl-3-(4-chlorophenyl)-5-(trifluoromethyl)-1H-pyrrol-2-yl]-morpholin-4-yl-methanone]",> 95%
2,"CN(CC(C)(C)C)C(=O)c1c(-c2ccc(Cl)cc2)cc(C(F)(F)F)n1Cc1ccccc1 [SC-02, 1-Benzyl-3-(4-chlorophenyl)-N-(2,2-dimethyl-propyl)-N-methyl-5-(trifluoromethyl)-1H-pyrrole-2-carboxylic acid amide]",75 to 95%
3,"Cc1c(-c2ccc(Cl)cc2)c(C(=O)N2CCOCC2)n(Cc2ccccc2)c1C(F)(F)F [SC-03, [1-Benzyl-3-(4-chlorophenyl)-4-methyl-5-(trifluoromethyl)-1H-pyrrol-2-yl]-morpholin-4-yl-methanone]",> 95%
4,"Cc1c(-c2ccc(Cl)cc2)c(C(=O)N(C)CC(C)(C)C)n(Cc2ccccc2)c1C(F)(F)F [SC-04, 1-Benzyl-3-(4-chlorophenyl)-N-(2,2-dimethyl-propyl)-N,4-dimethyl-5-(trifluoromethyl)-1 H-pyrrole-2-carboxylic acid amide]",75 to 95%
5,"Cc1c(-c2ccc(Cl)cc2)c(C(=O)N2CC(O)C2)n(Cc2ccccc2)c1C(F)(F)F [SC-05, [1-Benzyl-3-(4-chlorophenyl)-4-methyl-5-(trifluoromethyl)-1H-pyrrol-2-yl]-(3-hydroxy-azetidin-1-yl)-methanone]",75 to 95%
6,"Cc1c(-c2ccc(Cl)cc2)c(C(=O)N(C)CCS(C)(=O)=O)n(Cc2ccccc2)c1C(F)(F)F [SC-06, 1-Benzyl-3-(4-chlorophenyl)-N,4-dimethyl-N-(2-methylsulfonyl-ethyl)-5-(trifluoromethyl)-1H-pyrrole-2-carboxylic acid amide]",> 95%
7,"Cc1c(-c2ccc(Cl)cc2)c(C(=O)N2CCNC(=O)C2)n(Cc2ccccc2)c1C(F)(F)F [SC-08, 4-[1-Benzyl-3-(4-chlorophenyl)-4-methyl-5-(trifluoromethyl)-1H-pyrrole-2-carbonyl]-piperazin-2-one]",75 to 95%
8,"Cc1c(-c2ccc(Cl)cc2)c(C(=O)N2CCN(C)C(=O)C2)n(Cc2ccccc2)c1C(F)(F)F [SC-09, 4-[1-Benzyl-3-(4-chlorophenyl)-4-methyl-5-(trifluoromethyl)-1H-pyrrole-2-carbonyl]-1-methyl-piperazin-2-one]",75 to 95%
9,"Cc1c(-c2ccc(Cl)cc2)c(C(=O)NC2CCOCC2)n(Cc2ccccc2)c1C(F)(F)F [SC-10, 1-Benzyl-3-(4-chlorophenyl)-4-methyl-N-tetrahydro-pyran-4-yl-5-(trifluoromethyl)-1H-pyrrole-2-carboxylic acid amide]",75 to 95%
10,"Cc1c(-c2ccc(Cl)cc2)c(C(=O)N(C)C2CCOCC2)n(Cc2ccccc2)c1C(F)(F)F [SC-11, 1-Benzyl-3-(4-chlorophenyl)-N,4-dimethyl-N-tetrahydro-pyran-4-yl-5-(trifluoromethyl)-1H-pyrrole-2-carboxylic acid amide]",> 95%
11,"Cc1c(-c2ccc(Cl)cc2)c(C(=O)NC2(CO)CC2)n(Cc2ccccc2)c1C(F)(F)F [SC-16, 1-Benzyl-3-(4-chlorophenyl)-N-[1-(hydroxymethyl)-cyclopropyl]-4-methyl-5-(trifluoromethyl)-1H-pyrrole-2-carboxylic acid amide]",75 to 95%
12,"Cc1c(-c2ccc(Cl)cc2)c(C(=O)N2CCC(O)CC2)n(Cc2ccccc2)c1C(F)(F)F [SC-17, [1-Benzyl-3-(4-chlorophenyl)-4-methyl-5-(trifluoromethyl)-1H-pyrrol-2-yl]-(4-hydroxy-piperidin-1-yl)-methanone]",> 95%
13,"Cc1c(-c2ccc(Cl)cc2)c(C(=O)N(C)C)n(Cc2ccccc2)c1C(F)(F)F [SC-18, 1-Benzyl-3-(4-chlorophenyl)-N,N,4-trimethyl-5-(trifluoromethyl)-1H-pyrrole-2-carboxylic acid amide]",75 to 95%
